System: S. marcescens
Assay: Anti-microbial activity, log reduction of survivors after inoculation
Assay type: cell-based
Conditions: saline solution with 1.2% amino alcohol, 0.3% sodium chloride, 0.05% disodium edetate, pH 7.4
Procedure: The antibacterial activity of the above-described saline solutions against S. marcescens was evaluated. The formulations were evaluated by inoculating 20 ml of each solution with 0.1 ml of a microbial suspension. The final concentration was 10^6 colony forming units (“CPUs”) per ml. At each time point, pour plates of SCDA were prepared containing diluted aliquots of the various test samples. The bacteria and yeast plates were incubated at 30° to 35° C. for 2 to 3 days. The mold plates were incubated at 20° to 25° C. for five days. Following the colony incubation period, the number of CFUs were counted and the log reduction of the CFUs relative to the starting amount was calculated. The anti-microbial activity of the formulations against S. marcescens and P. aeruginosa was evaluated.

Row | SMILES | Log Reduction of Survivors (6 hours) | Log Reduction of Survivors (24 hours)
1 | OCCN1CCN(CCO)CC1 [BHP, 1,4-Bis(2-hydroxyethyl)-piperazine, reference compound] | 0.1 log | 0.1 log
2 | CC(N)(CO)CO [AMPD, 2-amino-2-methyl-1,3-propanediol] | 0.0 log | 0.0 log
3 | CC(C)(N)CO [AMP, 2-amino-2-methyl-1-propanol] | 0.1 log | 0.5 log
4 | CCC(N)(CO)CO [AEPD, 2-amino-2-ethyl-1,3-propanediol] | 0.0 log | 0.7 log
5 | CN(C)C(C)(C)CO [DMAMP, 2-dimethylamino-methyl-1-propanol] | 0.0 log | 0.7 log
